From US11866460B2 (priority 2015, dated 2024) come the findings set out here.

Converted amounts (≈) assume the structure as drawn. “And” between values parts separate entries of the source, which are not always exact repeats. Equal values may be shown once. Read-outs that look alike come from different tables or passages of the source. Where a SMILES comes first, the peptide text is derived from it. Where no end group is shown, it is not given here. A value given as a limit tells only on which side of the number the result lay.

For one data set, the system named is HIV-1US/92/727. To be noted: human PBMCs.
The subject of another data set is HSV-1. Briefly: microbe, parasite or virus in culture. As to conditions: Human alphaherpesvirus 1, Vero.
The test system of a further data set is Propionibacterium acnes. Description: microbe, parasite or virus in culture. The data set is classed as cell-based. As to conditions: Cutibacterium acnes, 48 h.
For a further data set, the system named is Haemophilus influenzae. Description: microbe, parasite or virus in culture. The data set is classed as cell-based.
The next data set relates to Clostridium difficile. Briefly: microbe, parasite or virus in culture. Type of data set: cell-based. As to conditions: Clostridioides difficile, 48 h.
The test system of data set [1] is YFV 17D. Briefly: microbe, parasite or virus in culture. To be noted: Yellow fever virus, Vero.
Another data set has as its system RVFV MP12. Briefly: microbe, parasite or virus in culture. To be noted: Rift Valley fever virus, Vero, 0 h.
Data set [2] deals with DENV-2 New Guinea C.
For data set [3], the system named is DENV-4 H241.
The subject of a further data set is DENV-3 H87. Description: microbe, parasite or virus in culture. To be noted: Dengue virus, DENV3, Vero, 0 h.
For data set [4], the system named is DENV-2 New Guinea C. Description: microbe, parasite or virus in culture. To be noted: Dengue virus, DENV2, Vero.
Data set [5] has as its system DENV-4 H241. Description: microbe, parasite or virus in culture. As to conditions: Dengue virus, DENV4, Vero.
The next data set deals with Vero cells. To be noted: African green monkey.
Data set [6] can be described thus: in vitro. To be noted: African green monkey, CC50.
For data set [7], the system named is DENV-1 PRS41393. Briefly: microbe, parasite or virus in culture. As to conditions: Dengue virus, DENV1, Vero.
Data set [8] concerns JUNV Candid #1. Description: microbe, parasite or virus in culture. To be noted: Mammarenavirus juninense, Vero.
The next data set concerns LACV H44-71017. Description: organism not typed. Type of data set: cell-based, LaCrosse encephalitis virus. As to conditions: Vero.
The subject of data set [9] is YFV 17D.
The subject of data set [10] is ZIKV FSS 13025. As to conditions: read-out: IC50 (PRNT50), plaque reduction; Vero cells, day 4.
Data set [11] has as its system ZIKV FSS 13025. As to conditions: read-out: IC50, yield reduction; Vero cells, day 3.
Data set [12] has as its system influenza A/Hong Kong/1/1968 virus (H3N2). Description: microbe, parasite or virus in culture. As to conditions: H3N2, MDCK.
The test system of a further data set is HIV-1RF. Type of data set: cell-based.
The subject of data set [13] is Staphylococcus aureus (MSSA).
For a further data set, the system named is VEEV TC-83. To be noted: 0 h.
Data set [14] concerns Streptococcus pneumoniae (PRSP).
Data set [15] can be described thus: in vitro. To be noted: Lactobacillus jensenii.
Data set [16] deals with Lactobacillus acidophilus.
The test system of data set [17] is Enterococcus faecalis (VSE).
Data set [18] has as its system Vero cells, erythrocyte, epithelial and endometrial cell lines.
The subject of data set [19] is panel of enveloped viruses (DENV, JEV, YFV, CHIKV and others). To be noted: panel of enveloped viruses (, JEV, YFV, CHIKV and others).
Data set [20] is described as follows: in vitro. To be noted: human, TC50.
The test system of data set [21] is JUNV Candid #1. As to conditions: 0 h.
The test system of data set [22] is Bacillus anthracis Sterne.
For a further data set, the system named is VACV NYCBH. To be noted: 0 h.
Data set [23] deals with aerobic Gram-positive bacterial isolates (S. aureus, enterococci, streptococci, and B. anthracis).
For data set [24], the system named is DENV-1 PRS41393. As to conditions: -1 PRS41393, 0 h.
A short description of data set [25]: in vitro. To be noted: dog.
The next data set deals with CHIKV 181/25. To be noted: 0 h.
The nature of data set [26]: in vitro. As to conditions: Lactobacillus crispatus.
Data set [27] relates to Streptococcus pneumoniae (PSSP).
The test system of data set [28] is Enterococcus faecalis (VRE).
A short description of data set [29]: in vitro. As to conditions: Lactobacillus acidophilus.
Data set [30] relates to Enterococcus faecium (VRE).
The mark [31] stands for this setting: 0.01 μg/mL during exposure, Day 3.
Setting [32] is: 0.01 μg/mL during exposure, Day 6.
[33] abbreviates: 0.1 μg/mL during exposure, Day 3.
Setting [34] is: 0.1 μg/mL during exposure, Day 6.
Where [35] appears, read: 10 μg/mL during exposure, Day 3.
Setting [36] is: 10 μg/mL during exposure, Day 6.
Where [37] appears, read: 100 μg/mL during exposure, Day 3.
The mark [38] stands for this setting: 100 μg/mL during exposure, Day 6.
Setting [39] is: 1000 μg/mL during exposure, Day 3.
The mark [40] stands for this setting: 1000 μg/mL during exposure, Day 6.

For the compound `Cc1cn([C@H]2C[C@H](N=[N+]=[N-])[C@@H](CO)O2)c(=O)[nH]c1=O` [AZT], in the data set with HIV-1US/92/727, the “TI (TC50/EC50)” value is reported as more than 342.5. Also, the EC50 in the data set with HIV-1US/92/727 (7 days) is 0.0029 µM and 0.00292 µM. In the data set on human PBMCs, this compound returned a CC50 of more than 1 µM.
For the compound `Nc1nc2c(ncn2COCCO)c(=O)[nH]1` [Acyclovir], the EC50 in the data set on HSV-1 came out at 2.82 µM.
Regarding `CCC[C@@H]1C[C@@H](C(=O)N[C@@H]([C@H]2O[C@H](SC)[C@H](O)[C@@H](O)[C@H]2O)[C@H](C)Cl)N(C)C1` [Clindamycin], the MIC in the data set with Propionibacterium acnes was not above 0.06 µg/mL; with Haemophilus influenzae, 4 µg/mL (≈ 9.41 µM); against Clostridium difficile, 1 µg/mL (≈ 2.35 µM).
In the case of `NC(=O)c1ncn([C@@H]2O[C@H](CO)[C@@H](O)[C@H]2O)n1` [Ribavirin], the EC50 is 203 µM with YFV 17D [1]; 258 µM in the data set on YFV 17D [1] (0 h); 140 µM in the data set on RVFV MP12; 203 µM and 185 µM in the data set with DENV-2 New Guinea C [2]; 209 µM and 284 µM in the data set with DENV-4 H241 [3]; 176 µM in the data set with DENV-3 H87. For the same compound, the EC50 in the data set with DENV-2 New Guinea C [4] turned out to be 267 µM; in the data set on DENV-2 New Guinea C [4] (0 h) it was 360 µM; in the data set on DENV-4 H241 [5], 253 µM; in the data set with DENV-4 H241 [5] (0 h) it was 395 µM; in the data set on DENV-1 PRS41393 [7] it was 144 µM; with DENV-1 PRS41393 [7] (0 h) it was 206 µM. Besides, the EC50 in the data set with JUNV Candid #1 [8] is 73.2 µM; with JUNV Candid #1 [8] (0 h), 63.7 µM; with LACV H44-71017, 161 µM; in the data set on LACV H44-71017 (0 h), 143 µM; in the data set on YFV 17D [9], 212 µM and 170 µM. Besides, the figures for the CC50 in the data set on Vero cells and in “in vitro [6]” were 577 µM and more than 750 µM, respectively.
Consider `CC(C)C[C@@H](NC(=O)[C@@H](CCCCN)NC(=O)[C@@H](CO)NC(=O)[C@@H](CCC(N)=O)NC(=O)[C@@H](CC(C)C)NC(=O)[C@@H](Cc1c[nH]c2ccccc12)NC(=O)[C@H](NC(=O)[C@@H](Cc1c[nH]c2ccccc12)NC(=O)[C@H](NC(=O)[C@@H](CC(=O)O)NC(=O)[C@@H](CCCNC(=N)N)NC(=O)[C@@H](CC(C)C)NC(=O)[C@@H](Cc1c[nH]c2ccccc12)NC(=O)[C@@H](CO)NC(=O)CNC(=O)[C@H](N)CO)C(C)C)[C@H](C)O)C(=O)O` [TSG001 D-isomer] (HELM PEPTIDE1{[dS].G.[dS].[dW].[dL].[dR].[dD].[dV].[dW].[dT].[dW].[dL].[dQ].[dS].[dK].[dL]}$$$$V2.0; N-terminus and C-terminus assumed), for which the values for the IC50 in the data set with ZIKV FSS 13025 [10] and in the data set on ZIKV FSS 13025 [11] were 0.49 µM and 0.646 µM, respectively. For the same compound, the CC50 in “in vitro [6]” was found to be 11.7 µM.
As for `CC(=O)N[C@H]1[C@H]([C@H](O)[C@H](O)CO)OC(C(=O)O)=C[C@@H]1N=C(N)N` [Zanamivir], it took 4.52 µM to reach a half-maximal effect in data set [12] (EC50).
Consider Nonoxynol-9 [Nonoxynol 9], for which the TC50 was 62.9 µg/mL in the data set on HEC1A cells, 55.1 µg/mL in the data set on Caco-2 cells, 74.0 µg/mL in the data set with ME180 cells and 61.3 µg/mL with Ca Ski cells. The “Log Reduction in Virus Titer” value was 0.3 log with HIV-1RF (setting [31]); 0.5 log with HIV-1RF (setting [32]); 0.3 log in the data set with HIV-1RF (setting [33]); 0.7 log in the data set with HIV-1RF (setting [34]); 0.3 log in the data set on HIV-1RF (1 μg/mL during exposure, Day 3); 0 log in the data set on HIV-1RF (1 μg/mL during exposure, Day 6). In addition, the “Log Reduction in Virus Titer” value in the data set with HIV-1RF (setting [35]) is recorded as 0 log; in the data set on HIV-1RF (setting [36]), 0 log; in the data set with HIV-1RF (setting [37]), not below 3.3 log; in the data set on HIV-1RF (setting [38]), 2.9 log; in the data set on HIV-1RF (setting [39]), not below 2.8 log; with HIV-1RF (setting [40]), not below 2.7 log. For the same compound, the “TCID50 Sample - Virus” value in the data set on HIV-1RF (setting [31]) is 5; in the data set on HIV-1RF (setting [32]), 6; with HIV-1RF (setting [33]), 5; with HIV-1RF (setting [34]), 5.8; in the data set with HIV-1RF (1 μg/mL during exposure, Day 3), 5; in the data set on HIV-1RF (1 μg/mL during exposure, Day 6) it was not below 6.6. The “TCID50 Sample - Virus” value is recorded as 5.3 in the data set on HIV-1RF (setting [35]); not below 6.6 in the data set on HIV-1RF (setting [36]); not above 2.0 in the data set with HIV-1RF (setting [37]); 3.6 in the data set on HIV-1RF (setting [38]); not above 2.5 with HIV-1RF (setting [39]); not above 3.8 in the data set on HIV-1RF (setting [40]).
In the case of SGSWLRDVWTWLQSKL [TSG001], the MIC in [13] was 2 µM; in [14], 8 µM; in [17], 2 µM; against Streptococcus salivarius it was 4 µM; in data set [22] it was 1 µM; in data set [27] it was 8 µM. The MIC with Streptococcus agalactiae came out at 8 µM; in data set [28], 4 µM; against Streptococcus pyogenes, 4 µM; in data set [30], 2 µM. Moreover, the EC50 is more than 12.5 µM in the data set on VEEV TC-83; less than 3 µM in data set [19]; more than 75 µM in the data set with JUNV Candid #1 [21]; more than 12.5 µM with VACV NYCBH; 3.42 µM in the data set with DENV-1 PRS41393 [24]; 2.24 µM in the data set with CHIKV 181/25. Further, the figures for the EC50 with Ebola virus (EBOV) and in the data set with Marburg virus (MARV) were 0.934 µM and 0.637 µM, respectively. For the same compound, the CC50 is more than 50 µM in the data set “in vitro [15]”; 37 µM in “in vitro [20]”; more than 200 µM in the data set “in vitro [25]”; 153 µM in the data set on Vero cells; more than 50 µM in “in vitro [26]”; 37 µM in the data set on ME180 cells (human). Also, the CC50 in the data set “in vitro [29]” was more than 50 µM. In addition, the TC50 result (in data set [16]; in the data set on Lactobacillus crispatus; with Lactobacillus jensenii) was “non-toxic” each time. Moreover, in [18], the “cytotoxicity” value is recorded as “minimal cytotoxicity”. Moreover, the “MICs, range over isolates” value in data set [23] was in the range of 2 to 16 µg/mL. Besides, the “TI (TC50/EC50)” value in the data set with HIV-1US/92/727 is 8.93. The MHC with human erythrocyte cells was determined as 50 µM.

What is called EC50 is the concentration that produces a half-maximal response. The IC50 is the point on the concentration scale where inhibition reaches its midpoint.
